Test results from patent US3988450A, “Cephalosporins” (priority 1974, dated 1976).
≈ marks a conversion by molar mass, not a printed value. Read-outs that look alike come from different tables or passages of the source.

Columns and labels:
[1] = tested on: E. coli JT1; test: MIC on nutrient agar; type: cell-based; conditions: Escherichia coli
Description: (§1) The minimum inhibitory concentrations of this compound required to inhibit the growth of various bacteria on nutrient agar are tabulated below: […]

[2] = tested on: P. mirabilis 889; test: MIC on nutrient agar; type: cell-based; conditions: Proteus mirabilis; P. mirabilis 889, nutrient agar
Description: as §1

[3] = tested on: β-Haemolytic Strep. CN10; test: MIC on nutrient agar; type: cell-based
Description: as §1

[4] = tested on: B. subtilis; test: MIC on nutrient agar; type: cell-based; conditions: Bacillus subtilis
Description: as §1

[5] = tested on: Proteus mirabilis C977; test: MIC on nutrient agar; type: cell-based
Description: as §1

[6] = tested on: Staph. aureus Oxford; test: MIC on nutrient agar; type: cell-based; conditions: Staphylococcus aureus
Description: as §1

[7] = tested on: Klebsiella aerogenes A; test: MIC on nutrient agar; type: cell-based
Description: as §1

[8] = Serum concentrations in mice after sub-cutaneous injection, microbiological assay; type: in vivo; conditions: mouse, sc, 50 mg/kg sub-cutaneous, average, read-out: Serum concentrations at time after dosing; for concentration at 0.5 h: 30 min; for concentration at 1 h: 60 min
Procedure: Each compound was injected sub-cutaneously into groups of mice at a dose of 50 mg/kg, and serum samples were taken at timed intervals thereafter and assayed microbiologically for their antibiotic content using the appropriate compound as standard.

[9] = tested on: Enterobacter cloacae N1; test: MIC on nutrient agar; type: cell-based
Description: as §1

[10] = tested on: Salmonella typhi; test: MIC on nutrient agar; type: cell-based; conditions: Salmonella enterica
Description: as §1

[11] = tested on: Serratia marcescens US32; test: MIC on nutrient agar; type: cell-based
Description: as §1

[12] = tested on: Shigella sonnei; test: MIC on nutrient agar; type: cell-based
Description: as §1

[13] = tested on: Staph. aureus Russell; test: MIC on nutrient agar; type: cell-based; conditions: Staphylococcus aureus
[14] = tested on: P. mirabilis 899; test: MIC on nutrient agar; type: cell-based; conditions: Proteus mirabilis; P. mirabilis 899, nutrient agar
[15] = general knowledge; cited from earlier work
[16] = tested on: P. morganii; test: MIC on nutrient agar; type: cell-based; conditions: Morganella morganii
Description: as §1

[17] = E. coli JT1, nutrient agar, read-out: MIC

| Structure (SMILES) | MIC [1, 17] | MIC [3] | MIC [4] | MIC [5] | MIC [6] | MIC [7] | MIC [10] | MIC [12] | MIC [13] | also measured |
| --- | --- | --- | --- | --- | --- | --- | --- | --- | --- | --- |
| N[C@@H](C(=O)N[C@@H]1C(=O)N2C(C(=O)O)=C(Cc3ccccc3C(=O)O)CS[C@H]12)c1ccccc1 [LV, 3-(o-Carboxybenzyl)-7β-(D-α-phenylglycyl)aminoceph-3-em-4-carboxylic acid] | 12.5 µg/mL (≈ 26.7 µM) | 5 µg/mL (≈ 10.7 µM) | 1.25 µg/mL (≈ 2.67 µM) | 5 µg/mL (≈ 10.7 µM) | 5 µg/mL (≈ 10.7 µM) | 5 µg/mL (≈ 10.7 µM) | – | – | – | MIC [2]: 5 µg/mL (≈ 10.7 µM) |
| N[C@@H](C(=O)N[C@@H]1C(=O)N2C(C(=O)O)=C(Cc3ccc(C(=O)O)cc3)CS[C@H]12)c1ccccc1 [p-carboxy isomer, 3-(p-Carboxybenzyl)-7β-(D-α-phenylglycyl)amino-ceph-3-em-4-carboxylic acid] | – | – | – | – | – | – | – | – | – | concentration at 10 min [8]: 75000 ng/mL; concentration at 20 min [8]: 87000 ng/mL; concentration at 0.5 h [8]: 69000 ng/mL; concentration at 1 h [8]: 48000 ng/mL; concentration at 2 h [8]: 22000 ng/mL; concentration at 4 h [8]: 9300 ng/mL |
| CN(C(=O)C=Cc1ccccc1)C(=O)N[C@@H](C(=O)N[C@@H]1C(=O)N2C(C(=O)O)=C(Cc3ccc(C(=O)O)cc3)CS[C@H]12)c1ccccc1 [XXI, 3-(p-Carboxybenzyl)-7β-[D-α-(3-cinnamoyl-3-methylureido)phenylacetamido]ceph-3-em-4-carboxylic acid] | – | 0.12 µg/mL (≈ 0.183 µM) | – | 5 µg/mL (≈ 7.64 µM) | 2.5 µg/mL (≈ 3.82 µM) | 5 µg/mL (≈ 7.64 µM) | 12.5 µg/mL (≈ 19.1 µM) | 5 µg/mL (≈ 7.64 µM) | – | MIC ([1]; JT1): 12.5 µg/mL (≈ 19.1 µM); MIC [9]: 5 µg/mL (≈ 7.64 µM); MIC [11]: 5 µg/mL (≈ 7.64 µM) |
| CN(C(=O)C=Cc1ccccc1)C(=O)N[C@@H](C(=O)N[C@@H]1C(=O)N2C(C(=O)O)=C(Cc3ccccc3C(=O)O)CS[C@H]12)c1ccccc1 [LVIX, 3-(o-Carboxybenzyl)-7β-[D-α-(3-cinnamoul-3-methylureido)phenylacetamido]ceph-3-em-4-carboxylic acid] | – | 0.25 µg/mL (≈ 0.382 µM) | – | – | 4 µg/mL (≈ 6.11 µM) | – | – | 4 µg/mL (≈ 6.11 µM) | – | MIC [11]: 4 µg/mL (≈ 6.11 µM) |
| N[C@@H](C(=O)N[C@@H]1C(=O)N2C(C(=O)O)=C(Cc3ccccc3C(=O)O)CS[C@H]12)c1ccccc1 [o-carboxy isomer, 3-(o-Carboxybenzyl)-7β-(D-α-phenylglycyl)aminoceph-3-em-4-carboxylic acid] | – | – | – | – | – | – | – | – | – | concentration at 10 min [8]: 63000 ng/mL; concentration at 20 min [8]: 66000 ng/mL; concentration at 0.5 h [8]: 58000 ng/mL; concentration at 1 h [8]: 49000 ng/mL; concentration at 2 h [8]: 41000 ng/mL; concentration at 4 h [8]: 31000 ng/mL |
| N[C@@H](C(=O)N[C@@H]1C(=O)N2C(C(=O)O)=C(Cc3cccc(C(=O)O)c3)CS[C@H]12)c1ccccc1 [m-carboxy isomer, 3-(m-Carboxybenzyl)-7β-(D-α-phenylglycyl)amino-ceph-3-em-4-carboxylic acid] | – | – | – | – | – | – | – | – | – | concentration at 10 min [8]: 84000 ng/mL; concentration at 20 min [8]: 64000 ng/mL; concentration at 0.5 h [8]: 50000 ng/mL; concentration at 1 h [8]: 26000 ng/mL; concentration at 2 h [8]: 14000 ng/mL; concentration at 4 h [8]: 1600 ng/mL |
| N[C@@H](C(=O)N[C@@H]1C(=O)N2C(C(=O)O)=C(Cc3ccc(C(=O)O)cc3)CS[C@H]12)c1ccccc1.O=C(O)C(F)(F)F [XIII, 3-(p-Carboxybenzyl)-7β-(D-α-phenylglycyl)amino-ceph-3-em-4-carboxylic acid trifluoroacetic acid salt] | 12.5 µg/mL | 0.5 µg/mL | 1.25 µg/mL | 1.25 µg/mL | 0.5 µg/mL | – | 0.5 µg/mL | 5 µg/mL | 2.5 µg/mL | – |
| CN(N=Cc1ccccc1)C(=O)N[C@@H](C(=O)N[C@@H]1C(=O)N2C(C(=O)O)=C(Cc3ccccc3C(=O)O)CS[C@H]12)c1ccccc1 [LVIII, 3-(o-Carboxybenzyl)-7β-[D-α-(3-benzylideneimino-3-methylureido)-phenylacetamido]-ceph-3-em-4-carboxylic acid] | 8 µg/mL (≈ 12.7 µM) | 0.2 µg/mL (≈ 0.319 µM) | – | – | 8 µg/mL (≈ 12.7 µM) | – | – | 4 µg/mL (≈ 6.37 µM) | – | MIC [9]: 8 µg/mL (≈ 12.7 µM) |
| N[C@@H](C(=O)N[C@@H]1C(=O)N2C(C(=O)O)=C(Cc3cccc(C(=O)O)c3)CS[C@H]12)c1ccccc1 [XLI, 3-(m-Carboxybenzyl)-7β-(D-α-phenylglycyl)amino-ceph-3-em-4-carboxylic acid] | 12.5 µg/mL (≈ 26.7 µM) | 0.12 µg/mL (≈ 0.257 µM) | 0.25 µg/mL (≈ 0.535 µM) | 2.5 µg/mL (≈ 5.35 µM) | 0.25 µg/mL (≈ 0.535 µM) | 2.5 µg/mL (≈ 5.35 µM) | 2.5 µg/mL (≈ 5.35 µM) | – | 1.25 µg/mL (≈ 2.67 µM) | – |
| NC(=O)N[C@H](Cc1c[nH]c2ccccc12)C(=O)N[C@@H](C(=O)N[C@@H]1C(=O)N2C(C(=O)O)=C(Cc3ccc(C(=O)O)cc3)CS[C@H]12)c1ccccc1 [XXVI] | 5 µg/mL (≈ 7.18 µM) | – | – | 12.5 µg/mL (≈ 17.9 µM) | 0.5 µg/mL (≈ 0.718 µM) | 5 µg/mL (≈ 7.18 µM) | 5 µg/mL (≈ 7.18 µM) | 5 µg/mL (≈ 7.18 µM) | 5 µg/mL (≈ 7.18 µM) | – |
| O=C(O)C1=C(Cc2cccc(C(=O)O)c2)CS[C@@H]2[C@H](NC(=O)[C@H](O)c3ccccc3)C(=O)N12 [XLIII] | – | 2 µg/mL (≈ 4.27 µM) | 0.5 µg/mL (≈ 1.07 µM) | 8 µg/mL (≈ 17.1 µM) | 0.5 µg/mL (≈ 1.07 µM) | – | 8 µg/mL (≈ 17.1 µM) | – | – | – |
| O=C(O)C1=C(Cc2ccc(C(=O)O)cc2)CS[C@@H]2[C@H](NC(=O)[C@H](O)c3ccccc3)C(=O)N12 [XV] | 5 µg/mL (≈ 10.7 µM) | 0.25 µg/mL (≈ 0.534 µM) | 0.5 µg/mL (≈ 1.07 µM) | 0.5 µg/mL (≈ 1.07 µM) | 0.25 µg/mL (≈ 0.534 µM) | – | 5 µg/mL (≈ 10.7 µM) | – | – | – |
| O=C(Cc1cccs1)N[C@@H]1C(=O)N2C(C(=O)O)=C(Cc3ccc(C(=O)O)cc3)CS[C@H]12 [XXX, 7β-(2-Thienylacetamido)-3-(p-carboxybenzyl)ceph-3-em-4-carboxylic acid] | – | 0.5 µg/mL (≈ 1.09 µM) | 1.2 µg/mL (≈ 2.62 µM) | 5 µg/mL (≈ 10.9 µM) | 0.1 µg/mL (≈ 0.218 µM) | – | 5 µg/mL (≈ 10.9 µM) | – | 5 µg/mL (≈ 10.9 µM) | MIC [14]: 2.5 µg/mL (≈ 5.45 µM) |
| N[C@@H](C(=O)N[C@@H]1C(=O)N2C(C(=O)O)=C(Cc3ccc(C(=O)O)cc3)CS[C@H]12)c1ccc(O)cc1.O=C(O)C(F)(F)F [XVII, 3-(p-carboxybenzyl)-7β-(D-α-p-hydroxyphenylglycyl)aminoceph-3-em-4-carboxylic acid trifluoroacetic acid salt] | – | 0.5 µg/mL | 5 µg/mL | 2.5 µg/mL | 2.5 µg/mL | – | 5 µg/mL | – | 5 µg/mL | – |
| Cc1nnc(SCC2=C(C(=O)O)N3C(=O)[C@@H](NC(=O)Cn4cnnn4)[C@H]3SC2)s1 [Cefazolin, reference compound] | – | – | – | – | – | – | – | – | – | duration of action (regarded as) [15]: relatively `long-acting` cephalosporin; concentration at 10 min [8]: 45000 ng/mL; concentration at 20 min [8]: 37000 ng/mL; concentration at 0.5 h [8]: 21000 ng/mL; concentration at 1 h [8]: < 4000 ng/mL; concentration at 2 h [8]: < 4000 ng/mL; concentration at 4 h [8]: < 4000 ng/mL |
| CN(N=Cc1ccccc1)C(=O)N[C@@H](C(=O)N[C@@H]1C(=O)N2C(C(=O)O)=C(Cc3ccc(C(=O)O)cc3)CS[C@H]12)c1ccccc1 [XIX, 3-(p-Carboxybenzyl)-7β-[D-α-(3-benzylideneimino-3-methylureido)phenylacetamido]ceph-3-em-4-carboxylic acid] | 12.5 µg/mL (≈ 19.9 µM) | 0.12 µg/mL (≈ 0.191 µM) | – | 5 µg/mL (≈ 7.97 µM) | 1.25 µg/mL (≈ 1.99 µM) | 5 µg/mL (≈ 7.97 µM) | 5 µg/mL (≈ 7.97 µM) | 2.5 µg/mL (≈ 3.98 µM) | – | MIC [16]: 12.5 µg/mL (≈ 19.9 µM); MIC [9]: 5 µg/mL (≈ 7.97 µM); MIC [11]: 12.5 µg/mL (≈ 19.9 µM) |
